Measurements published in publication PMC5712521, “Dendrogenin A drives LXR to trigger lethal autophagy in cancers” (Nature Communications, 2017).

Tests used:
[1] = test system: SKMEL-28 cells; assay: RT-qPCR of LXR-responsive genes; format: cell-based, human; settings: 8 h, 2.5 µM DDA, 10 µM 22(R)HC, 1 µM GW, 100 nM TO, vs vehicle
Protocol: Total RNA was extracted from tumor cells or MEFs using an RNA Extraction kit (Qiagen) or Trizol (Invitrogen), respectively, and was quantified with NanoDrop. Complementary DNA (cDNA) synthesis was performed with 1 μg RNA iScript Reverse Transcriptase (Bio-Rad). 25 ng cDNA was amplified using SyBR Supermix (Bio-Rad). RNA expression of the different genes of interest (Supplementary Tables 1, 2) were determined using the ΔΔCT method, where the difference in the threshold cycle (ΔCT) values of the target gene and the housekeeping gene for each sample was normalized to the ΔCT value of the untreated sample.
Supplementary Fig. 4. a R egulat ion of LXR-responsive genes b y D DA and other k nown LXR
ligands in B16F10 and SKMEL- 28 cells transfected with s iRN A targeting LXRβ ( siLXRβ) or
with contro l siRN A scram ble (siSC). Cells were treated for 8 h with either solvent vehicle, 2.5
µM DD A, 10 µM 22(R) hydrox ycholesterol (22(R)HC), 1 µM GW 3965 (GW ) or 100 nM
T O901317 (T O). […]

[2] = test system: SKMEL-28 cells; assay: Immunoblot densitometry (LC3-II); format: cell-based, human; settings: 2.5 µM DDA; for LC3-II protein, densitometry relative to untreated / LC3-II protein, densitometry: 24 h
Protocol: Immunoblotting was carried out as described previously. Proteins were separated on SDS-PAGE gels, electro-transferred onto polyvinylidene difluoride membranes and incubated overnight at 4 °C with the following antibodies: anti-Atg3, anti-Atg5 (D1G9), anti-Atg7 (D12B11), anti-Beclin (D40C5), anti-caspase-3 (Cell Signaling), anti-Bcl-2 (Millipore), anti-Bax (Millipore), anti-LC3 (Sigma-Aldrich), anti-LXRα (SantaCruz), anti-LXRβ (SantaCruz), anti-Nur77 (Active motif), anti-NOR1 (R&D systems), anti-PARP (Cell Signaling), anti-Vps34 (Cell Signaling), or anti-Actin (Millipore). For visualization, an ECL plus kit (Amersham Biosciences) was used, and chemiluminescence was measured by autoradiography (Supplementary Fig. 9). Specific bands were quantified with ImageQuant software.

[3] = test system: B16F10 cells; assay: DDA-induced cytotoxicity (cell death); format: cell-based
Protocol: (§1) Melanoma cells were seeded into 6-well plates at 60,000 cells per well and AML cells at 250,000 cells/ml. The cells were then treated with control solvent vehicle (1/1000 ethanol in water) or DDA. Where indicated, treated cells were incubated in the presence or absence of each inhibitor for time shown. Cell death was determined by the trypan blue exclusion assay. Cells were scraped and resuspended in trypan blue solution (0.25% (w/v) in PBS) and counted in a Malassez cell under light microscopy. Cell viability was then quantified by counting viable (trypan blue-negative) and dead cells (trypan blue-positive).
(§2) Supplementary Fig. 1. a DDA inhibited m elanom a colony form ation. Melanom a cells were […]
(§3) a 0.5% solution of crystal violet in water and analyzed by microscopy. Images are representative of 5 independent experiments. b Evaluation of DDA-induced cytotoxicity (cytotox) and clonogenicity (clono) inhibition in a subset of human (H) and mouse (M) m elanom a cell lines. T he BRaf status in m elanom a cells lines is shown. […]

[4] = test system: SKMEL-28 cells; assay: DDA-induced cytotoxicity (cell death); format: cell-based
Protocol: as §1, §2, §3

[5] = test system: SKMEL-28 cells; assay: Sterol analysis by GC/MS; format: cell-based, human
Protocol: (§4) Sterols in cell homogenates were extracted with a solvent mixture containing chloroform/methanol 2/1 (v/v) spiked with epicoprostanol as the internal standard. Lipids were partitioned in chloroform after the addition of saline and saponified by methanolic potassium hydroxide (0.5 N, 60 °C, 15 min). The fatty acids released were methylated with BF3-methanol (12%, 60 °C, 15 min) to not interfere with the chromatography of sterols. The sterols were re-extracted in hexane and silylated, as described previously. The trimethylsilylether derivatives of the sterols were separated by gas chromatography (GC) (Hewlett–Packard 6890 series) in a medium polarity capillary column RTX-65, (65% diphenyl 35% dimethyl polysiloxane, length 30 m, diameter 0.32 mm, film thickness 0.25 μm (Restesk, Evry, France)). The mass spectrometer (Agilent 5975 inert XL) in series with the GC was set up for the detection of positive ions. Ions were produced in the electron impact mode at 70 eV. Sterols were identified by the fragmentogram in the scanning mode and quantified by selective monitoring of the specific ions after normalization with the internal standard epicoprostanol and calibration with weighed standards. […]
Quantification of sterols ac cum ulation in SKMEL- 2 8 c ells either expressing LXRβ (shCT L) or with LXRβ (sh3 or sh4LXR β) k nock ed down after 24 h treatm ent with 2.5 µ M DD A or solvent vehicle. Anal yses were perform ed by GC/MS. f Quantification of sterols accumulated in m elanom a cells after 24 h treatm ent with 10 µM 22(R) HC, 1 µ M GW , 100 nM T O or solvent […]
(§5) vehicle. […]

[6] = test system: B16F10 cells; assay: Sterol analysis by GC/MS; format: cell-based, mouse; settings: B16F10, 24 h, 10 µM 22(R)HC, 1 µM GW, 100 nM TO
Protocol: as §4
Anal yses were perform ed by GC/MS. f Quantification of sterols accumulated in
m elanom a cells after 24 h treatm ent with 10 µM 22(R) HC, 1 µ M GW , 100 nM T O or solvent
as §5

[7] = SKMEL-28 Sh3LXRβ, 2.5 µM DDA, 24 h
[8] = SKMEL-28 Sh4LXRβ, 2.5 µM DDA, 24 h
[9] = SKMEL-28 shCTRL, 2.5 µM DDA, 24 h
[10] = SKMEL-28, 24 h, 10 µM 22(R)HC, 1 µM GW, 100 nM TO, GC/MS

## CC(C)CCC[C@@H](C)[C@H]1CC[C@H]2[C@@H]3C[C@@H](NCCc4cnc[nH]4)[C@@]4(O)C[C@@H](O)CC[C@]4(C)[C@H]3CC[C@]12C [DDA, Dendrogenin A]
[1]; SKMEL-28, siCT
  ABCA1 mRNA: 0.4±0.1 fold
  ABCG1 mRNA: 1.0±0.1 fold
  ABCG5 mRNA: 3.9±0.4 fold
  ABCG8 mRNA: 0.2±0.1 fold
  LC3A mRNA: 1.7±0.2 fold
  LC3B mRNA: 1.6±0.1 fold
  LDLR mRNA: 3.2±0.3 fold
  NOR1 mRNA: 4.8±0.2 fold
  Nur77 mRNA: 8.2±0.2 fold
  SCD1 mRNA: 2.2±0.2 fold
  SREBP1 mRNA: 0.9±0.2 fold
  SULT2B1b mRNA: 2.9±0.1 fold
[1]; SKMEL-28, siLXRβ
  ABCA1 mRNA: 0.9±0.1 fold
  ABCG1 mRNA: 0.8±0.2 fold
  ABCG5 mRNA: 1.1±0.2 fold
  ABCG8 mRNA: 0.7±0.2 fold
  LC3A mRNA: 0.8±0.2 fold
  LC3B mRNA: 0.9±0.3 fold
  LDLR mRNA: 1.8±0.2 fold
  NOR1 mRNA: 1.0±0.1 fold
  Nur77 mRNA: 1.2±0.2 fold
  SCD1 mRNA: 1.2±0.1 fold
  SREBP1 mRNA: 1.0±0.3 fold
  SULT2B1b mRNA: 1.1±0.2 fold
[2]; SKMEL-28, 24 h, 10 µM 22(R)HC, 100 nM TO
  LC3-II protein, densitometry relative to control: 2.5
[2]; SKMEL-28 sh3LXRβ
  LC3-II protein, densitometry relative to untreated: 2.1
[2]; SKMEL-28 sh4LXRβ
  LC3-II protein, densitometry relative to untreated: 2.6
[2]; SKMEL-28 shCTRL
  LC3-II protein, densitometry relative to untreated: 5.5
[2]; SKMEL-28 siATG7
  LC3-II protein, densitometry: 1.1
[2]; SKMEL-28 siBECN1
  LC3-II protein, densitometry: 1.3
[2]; SKMEL-28 siNOR1 + siNur77
  LC3-II protein, densitometry: 3.2
[2]; SKMEL-28 siNOR1
  LC3-II protein, densitometry: 2.2
[2]; SKMEL-28 siNur77
  LC3-II protein, densitometry: 1.8
[2]; SKMEL-28 siVPS34
  LC3-II protein, densitometry: 1.2
[3]; Mus musculus, B16-F10, 72 h, read-out: Cytotox EC50
  EC50: 700 ± 100 nM
[4]; Homo sapiens, SK-MEL-28, SKMEL-28 (H), BRaf V600E, 72 h, read-out: Cytotox EC50
  EC50: 2100 ± 200 nM
[5]; [7]
  Sterol amount/total sterol: 7-DHC: 0.03± 0.02
  Sterol amount/total sterol: 8-DHC: 1.52± 0.10
  Sterol amount/total sterol: desmosterol: 0.01± 0.009
  Sterol amount/total sterol: lathosterol: 0.71± 0.02
  Sterol amount/total sterol: zymostenol: 5.78± 0.82
[5]; [8]
  Sterol amount/total sterol: 7-DHC: 0.39± 0.09
  Sterol amount/total sterol: 8-DHC: 4.32± 0.66
  Sterol amount/total sterol: desmosterol: 0.02± 0.005
  Sterol amount/total sterol: zymostenol: 6.57± 0.92
[5]; [9]
  Sterol amount/total sterol: 7-DHC: 0.03± 0.006
  Sterol amount/total sterol: 8-DHC: 5.81± 0.89
  Sterol amount/total sterol: desmosterol: 0.01± 0.008
  Sterol amount/total sterol: lathosterol: 0.41± 0.03
  Sterol amount/total sterol: zymostenol: 2.60±0.07

## O=C(O)Cc1cccc(OCCCN(Cc2cccc(C(F)(F)F)c2Cl)CC(c2ccccc2)c2ccccc2)c1 [GW, GW3965]
[1]; SKMEL-28, siCT
  ABCA1 mRNA: 15.1±2 fold
  ABCG1 mRNA: 3.2±0.5 fold
  ABCG5 mRNA: 3.1±0.5 fold
  ABCG8 mRNA: 1.5±0.1 fold
  LC3A mRNA: 0.8±0.2 fold
  LC3B mRNA: 0.9±0.1 fold
  LDLR mRNA: 1.0±0.2 fold
  NOR1 mRNA: 1.5±0.1 fold
  Nur77 mRNA: 0.7±0.2 fold
  SCD1 mRNA: 1.6±0.1 fold
  SREBP1 mRNA: 2.6±0.3 fold
  SULT2B1b mRNA: 2.8±0.1 fold
[1]; SKMEL-28, siLXRβ
  ABCA1 mRNA: 2.2±0.3 fold
  ABCG1 mRNA: 1.2±0.1 fold
  ABCG5 mRNA: 1.1±0.1 fold
  ABCG8 mRNA: 0.8±0.1 fold
  LC3A mRNA: 1.0±0.3 fold
  LC3B mRNA: 1.1±0.3 fold
  LDLR mRNA: 0.9±0.1 fold
  NOR1 mRNA: 0.8±0.1 fold
  Nur77 mRNA: 0.9±0.2 fold
  SCD1 mRNA: 1.1±0.1 fold
  SREBP1 mRNA: 1.5±0.2 fold
  SULT2B1b mRNA: 1.1±0.2 fold
[6]
  Sterol amount/total sterol: 8-DHC: 0.05± 0.005
  Sterol amount/total sterol: zymostenol: 0.11 ± 0.08
[3]; B16F10, 5 µM 22(R)HC, 0.5 µM TO, 1 µM GW
  cell death: no impact on cell death
[4]; SKMEL-28, 5 µM 22(R)HC, 0.5 µM TO, 1 µM GW
  cell death: no impact on cell death
[5]; [10]
  Sterol amount/total sterol: 8-DHC: 0.07± 0.01
  Sterol amount/total sterol: zymostenol: 0.29± 0.09
